System: fungi
Assay: antifungal potency of urea compared with known antifungal agents
Conditions: no method or data given

## NC(N)=O [urea]
  antifungal potency relative to known antifungal agents: equal potency to known antifungal agents

Reference: patent US20030198611A1, “Method of treating onychomycosis with urea and an antioxidant” (Bradley Pharmaceuticals, Inc., priority 2002, published 2003)
